Source: US20030104089A1, “Minari extract for preventing the induction and metastasis of cancer by carcinogens contained in cigarette smoke, fermented foods or alcoholic drinks” (priority 2000, published 2003)

Columns and labels:
[1] = humans, calculated; cited from earlier work
[2] = tested on: PCNA (proliferative cell nuclear antigen); assay: PCNA expression in lung tissue of NNK-treated A/J mice; assay type: in vivo; settings: single i.p. NNK 4 mg, normal feed, 4 months, compared to water-only-receiving group
Procedure: The NNK group received a single administration of 4 mg of NNK. The group receiving NNK-Minari received a single administration of NNK and thereafter a feed to which Minari extract was added at a 1.25% (w/w) concentration. The other group received a normal feed. All the groups were allowed take, ad lib., their feeds for 4 months.
A/J mice were divided into three experimental groups: a single intraperitoneal water administration-receiving (+normal feed) group; a single intraperitoneal NNK (4 mg) administration-receiving (+normal feed) group; and a single intraperitoneal NNK administration-receiving (+feed to which Minari extract is added at a concentration of 1.25%) group. Four months later, the expression level of PCNA in each experimental group was measured.

Compound	virtually safe dose (VSD) for liver cancer [1]	virtually safe dose (VSD) for lung cancer [1]	expression level of PCNA [2]
CCOC(N)=O [urethane, ethylcarbamate]	7.2×10^−5 mg/kg body weight	1.8×10^−4 mg/kg body weight	
CN(CCCC(=O)c1cccnc1)N=O [NNK, {(4-N-methyl-N-nitrosoamino)-1-(3-pyridyl)-1-butanone}]			significantly increased
